Measured values published in paper PMC12736120, “First-in-Human Phase I Clinical Trial of SLC-391, a Novel and Selective AXL Inhibitor, in Patients with Advanced Solid Tumours” (Pharmaceuticals, 2025).

Assay: Phase I safety and tolerability (DLTs, adverse events, laboratory, ECG)
Format: in vivo
Conditions: for dose-limiting toxicity (DLT): one subject; for Any treatment-related adverse event (TRAE) / TRAE: Decreased appetite / TRAE: Diarrhoea / TRAE: Dysgeusia / TRAE: Fatigue / TRAE: Gastrointestinal disorders / TRAE: General disorders and administration site conditions / TRAE: Metabolism and nutrition disorders / TRAE: Nausea / TRAE: Nervous system disorders / TRAE: Vomiting: Definitely related; for Any treatment-emergent adverse event (TEAE) / TEAE: Abdominal distension / TEAE: Abdominal pain / TEAE: Back pain / TEAE: Blood and lymphatic system disorders / TEAE: Chills / TEAE: Constipation / TEAE: Cough / TEAE: Decreased appetite / TEAE: Diarrhoea / TEAE: Dizziness / TEAE: Dysgeusia / TEAE: Dyspnoea / TEAE: Fatigue / TEAE: Gastrointestinal disorders / TEAE: General disorders and administration site conditions / TEAE: Haematuria / TEAE: Headache / TEAE: Infections and infestations / TEAE: Investigations / TEAE: Metabolism and nutrition disorders / TEAE: Musculoskeletal and connective tissue disorders / TEAE: Nausea / TEAE: Nervous system disorders / TEAE: Oedema peripheral / TEAE: Psychiatric disorders / TEAE: Pyrexia / TEAE: Renal and urinary disorders / TEAE: Respiratory, thoracic, and mediastinal disorders / TEAE: Skin and subcutaneous tissue disorders / TEAE: Vomiting / TEAE: Weight decreased: Grade 1
Method: This study employed a standard 3 + 3 dose escalation design with a starting dose of 25 mg QD. […] Dose escalation decisions took into account all available data from evaluable subjects as well as PK and the safety profile of prior dose cohorts. […] There was a minimum 5-day stagger between dosing of the first and second subjects in each dose cohort. Dose escalation decisions were made by a data review committee (DRC) composed of, at minimum, the medical monitor, at least one principal investigator, and a sponsor representative, per the study DRC Plan. Dose escalation could continue until 2 or more subjects in the same dose cohort experienced a dose-limiting toxicity (DLT). DLTs were defined as Grade 3 or 4 adverse drug reactions (ADRs), with grades as defined in the National Cancer Institute Common Toxicity Criteria for Adverse Events (NCI-CTCAE) version 5.0. […] The MTD was defined as the highest dose at which no more than 1 of 6 subjects experienced a DLT during cycle 1 of the study drug. The MTD would have been exceeded if 2 or more subjects in a dose cohort of up to 6 subjects experienced a DLT. Subjects could continue treatment until disease progression, unacceptable toxicity, death, withdrawal of consent, or loss to follow-up.
Before enrolment in the study, all patients received a detailed medical history and physical examination. Clinical laboratory evaluations included clinical chemistry, complete blood count, urinalysis, coagulation factors, and a lipid panel. Other safety assessments included vital signs, physical examination, electrocardiogram, and echocardiogram with multigated acquisition (ECHO/MUGA). Safety assessments were performed on days 1, 8, 15, and 21 of cycle 1, and on day 1 of cycles 2 to 6.

Nc1ncc(-c2cnn(C3CCNCC3)c2)cc1-c1nnc(CC2CC2)o1 [SLC-391, 3-(5-[cyclopropylmethyl]-1,3,4-oxadiazol-2-yl)-5-(1-[piperidin-4-yl]-1H-pyrazol-4-yl)-pyridin-2-amine]
subjects with SAEs (110 mg BID (1/3)): 33.3%
TEAEs leading to drug withdrawal or study discontinuation (150 mg BID): 16.7%
subjects reporting Grade 3 TEAEs (150 mg BID): 50.0%
DLTs and SAEs (150 mg BID (N = 6)): no DLTs or SAEs
subjects reporting constipation (150 mg BID (N = 6)): 66.7%
subjects reporting diarrhoea (150 mg BID (N = 6)): 66.7%
subjects reporting dyspnoea (150 mg BID (N = 6)): 50.0%
subjects reporting fatigue (150 mg BID (N = 6)): 83.3%
subjects reporting nausea (150 mg BID (N = 6)): 83.3%
subjects with SAEs (150 mg QD (3/6)): 50%
subjects with SAEs (175 mg QD (1/2)): 50%
dose-limiting toxicity (DLT) (175 mg QD (N = 2), SUSAR): Grade 3 haematochezia
TEAEs leading to drug withdrawal or study discontinuation (200 mg BID): 66.7%
subjects reporting Grade 3 TEAEs (200 mg BID): 66.7%
subjects reporting constipation (200 mg BID (N = 3)): 66.7%
subjects reporting decreased appetite (200 mg BID (N = 3)): 66.7%
subjects reporting diarrhoea (200 mg BID (N = 3)): 66.7%
subjects reporting dysgeusia (200 mg BID (N = 3)): 66.7%
subjects reporting fatigue (200 mg BID (N = 3)): 66.7%
subjects reporting headache (200 mg BID (N = 3)): 66.7%
subjects reporting nausea (200 mg BID (N = 3)): 100.0%
dose-limiting toxicity (DLT) (200 mg BID): Grade 3 thrombocytopenia associated with Grade 1 haematuria
subjects with interrupted dosing who continued at a reduced dose (2/9 subjects): 22.2%
maximum tolerated dose (MTD) (25-175 mg QD, 75-200 mg BID, 21-day cycles): not reached
SAEs, subjects (BID cohorts): 6.7%
TEAEs leading to treatment interruption or missed dose (BID cohorts): 40.0%
TEAEs leading to treatment or study discontinuation, subjects (BID cohorts): 20.0%
subjects with Grade 3 TEAEs (BID cohorts): 40.0%
subjects with TRAEs (BID cohorts): 86.7%
subjects with at least one TEAE (BID cohorts): 100.0%
Any treatment-related adverse event (TRAE) (Overall BID (N = 15)): 5 (33.3%) n (%)
TRAE: Decreased appetite (Overall BID (N = 15)): 2 (13.3%) n (%)
TRAE: Diarrhoea (Overall BID (N = 15)): 2 (13.3%) n (%)
TRAE: Dysgeusia (Overall BID (N = 15)): 1 (6.7%) n (%)
TRAE: Fatigue (Overall BID (N = 15)): 1 (6.7%) n (%)
TRAE: Gastrointestinal disorders (Overall BID (N = 15)): 5 (33.3%) n (%)
TRAE: General disorders and administration site conditions (Overall BID (N = 15)): 1 (6.7%) n (%)
TRAE: Metabolism and nutrition disorders (Overall BID (N = 15)): 2 (13.3%) n (%)
TRAE: Nausea (Overall BID (N = 15)): 4 (26.7%) n (%)
TRAE: Nervous system disorders (Overall BID (N = 15)): 1 (6.7%) n (%)
TRAE: Vomiting (Overall BID (N = 15)): 3 (20.0%) n (%)
Any treatment-related adverse event (TRAE) (Overall QD (N = 20)): 7 (35.0%) n (%)
TRAE: Decreased appetite (Overall QD (N = 20)): 2 (10.0%) n (%)
TRAE: Diarrhoea (Overall QD (N = 20)): 5 (25.0%) n (%)
TRAE: Dysgeusia (Overall QD (N = 20)): 1 (5.0%) n (%)
TRAE: Fatigue (Overall QD (N = 20)): 3 (15.0%) n (%)
TRAE: Gastrointestinal disorders (Overall QD (N = 20)): 6 (30.0%) n (%)
TRAE: General disorders and administration site conditions (Overall QD (N = 20)): 3 (15.0%) n (%)
TRAE: Metabolism and nutrition disorders (Overall QD (N = 20)): 2 (10.0%) n (%)
TRAE: Nausea (Overall QD (N = 20)): 4 (20.0%) n (%)
TRAE: Nervous system disorders (Overall QD (N = 20)): 1 (5.0%) n (%)
TRAE: Vomiting (Overall QD (N = 20)): 5 (25.0%) n (%)
Any treatment-related adverse event (TRAE) (Overall Study (N = 35)): 12 (34.3%) n (%)
TRAE: Decreased appetite (Overall Study (N = 35)): 4 (11.4%) n (%)
TRAE: Diarrhoea (Overall Study (N = 35)): 7 (20.0%) n (%)
TRAE: Dysgeusia (Overall Study (N = 35)): 2 (5.7%) n (%)
TRAE: Fatigue (Overall Study (N = 35)): 4 (11.4%) n (%)
TRAE: Gastrointestinal disorders (Overall Study (N = 35)): 11 (31.4%) n (%)
TRAE: General disorders and administration site conditions (Overall Study (N = 35)): 4 (11.4%) n (%)
TRAE: Metabolism and nutrition disorders (Overall Study (N = 35)): 4 (11.4%) n (%)
TRAE: Nausea (Overall Study (N = 35)): 8 (22.9%) n (%)
TRAE: Nervous system disorders (Overall Study (N = 35)): 2 (5.7%) n (%)
TRAE: Vomiting (Overall Study (N = 35)): 8 (22.9%) n (%)
Any treatment-emergent adverse event (TEAE) (Overall BID (N = 15)): 2 (13.3) n (%)
TEAE: Abdominal distension (Overall BID (N = 15)): 2 (13.3) n (%)
TEAE: Abdominal pain (Overall BID (N = 15)): 0 n (%)
TEAE: Back pain (Overall BID (N = 15)): 0 n (%)
TEAE: Blood and lymphatic system disorders (Overall BID (N = 15)): 1 (6.7) n (%)
TEAE: Chills (Overall BID (N = 15)): 4 (26.7) n (%)
TEAE: Constipation (Overall BID (N = 15)): 5 (33.3) n (%)
TEAE: Cough (Overall BID (N = 15)): 2 (13.3) n (%)
TEAE: Decreased appetite (Overall BID (N = 15)): 1 (6.7) n (%)
TEAE: Diarrhoea (Overall BID (N = 15)): 6 (40.0) n (%)
TEAE: Dizziness (Overall BID (N = 15)): 0 n (%)
TEAE: Dysgeusia (Overall BID (N = 15)): 0 n (%)
TEAE: Dyspnoea (Overall BID (N = 15)): 0 n (%)
TEAE: Fatigue (Overall BID (N = 15)): 4 (26.7) n (%)
TEAE: Gastrointestinal disorders (Overall BID (N = 15)): 7 (46.7) n (%)
TEAE: General disorders and administration site conditions (Overall BID (N = 15)): 5 (33.3) n (%)
TEAE: Haematuria (Overall BID (N = 15)): 3 (20.0) n (%)
TEAE: Headache (Overall BID (N = 15)): 3 (20.0) n (%)
TEAE: Infections and infestations (Overall BID (N = 15)): 1 (6.7) n (%)
TEAE: Investigations (Overall BID (N = 15)): 2 (13.3) n (%)
TEAE: Metabolism and nutrition disorders (Overall BID (N = 15)): 0 n (%)
TEAE: Musculoskeletal and connective tissue disorders (Overall BID (N = 15)): 2 (13.3) n (%)
TEAE: Nausea (Overall BID (N = 15)): 7 (46.7) n (%)
TEAE: Nervous system disorders (Overall BID (N = 15)): 3 (20.0) n (%)
TEAE: Oedema peripheral (Overall BID (N = 15)): 1 (6.7) n (%)
TEAE: Psychiatric disorders (Overall BID (N = 15)): 1 (6.7) n (%)
TEAE: Pyrexia (Overall BID (N = 15)): 2 (13.3) n (%)
TEAE: Renal and urinary disorders (Overall BID (N = 15)): 3 (20.0) n (%)
TEAE: Respiratory, thoracic, and mediastinal disorders (Overall BID (N = 15)): 2 (13.3) n (%)
TEAE: Skin and subcutaneous tissue disorders (Overall BID (N = 15)): 2 (13.3) n (%)
TEAE: Vomiting (Overall BID (N = 15)): 5 (33.3) n (%)
TEAE: Weight decreased (Overall BID (N = 15)): 2 (13.3) n (%)
Any treatment-emergent adverse event (TEAE) (Overall QD (N = 20)): 1 (5.0) n (%)
TEAE: Abdominal distension (Overall QD (N = 20)): 2 (10.0) n (%)
TEAE: Abdominal pain (Overall QD (N = 20)): 4 (20.0) n (%)
TEAE: Back pain (Overall QD (N = 20)): 1 (5.0) n (%)
TEAE: Blood and lymphatic system disorders (Overall QD (N = 20)): 0 n (%)
TEAE: Chills (Overall QD (N = 20)): 2 (10.0) n (%)
TEAE: Constipation (Overall QD (N = 20)): 5 (25.0) n (%)
TEAE: Cough (Overall QD (N = 20)): 4 (20.0) n (%)
TEAE: Decreased appetite (Overall QD (N = 20)): 6 (30.0) n (%)
TEAE: Diarrhoea (Overall QD (N = 20)): 8 (40.0) n (%)
TEAE: Dizziness (Overall QD (N = 20)): 4 (20.0) n (%)
TEAE: Dysgeusia (Overall QD (N = 20)): 1 (5.0) n (%)
TEAE: Dyspnoea (Overall QD (N = 20)): 2 (10.0) n (%)
TEAE: Fatigue (Overall QD (N = 20)): 6 (30.0) n (%)
TEAE: Gastrointestinal disorders (Overall QD (N = 20)): 8 (40.0) n (%)
TEAE: General disorders and administration site conditions (Overall QD (N = 20)): 7 (35.0) n (%)
TEAE: Haematuria (Overall QD (N = 20)): 1 (5.0) n (%)
TEAE: Headache (Overall QD (N = 20)): 2 (10.0) n (%)
TEAE: Infections and infestations (Overall QD (N = 20)): 0 n (%)
TEAE: Investigations (Overall QD (N = 20)): 5 (25.0) n (%)
TEAE: Metabolism and nutrition disorders (Overall QD (N = 20)): 5 (25.0) n (%)
TEAE: Musculoskeletal and connective tissue disorders (Overall QD (N = 20)): 5 (25.0) n (%)
TEAE: Nausea (Overall QD (N = 20)): 8 (40.0) n (%)
TEAE: Nervous system disorders (Overall QD (N = 20)): 8 (40.0) n (%)
TEAE: Oedema peripheral (Overall QD (N = 20)): 2 (10.0) n (%)
TEAE: Psychiatric disorders (Overall QD (N = 20)): 2 (10.0) n (%)
TEAE: Pyrexia (Overall QD (N = 20)): 2 (10.0) n (%)
TEAE: Renal and urinary disorders (Overall QD (N = 20)): 0 n (%)
TEAE: Respiratory, thoracic, and mediastinal disorders (Overall QD (N = 20)): 3 (15.0) n (%)
TEAE: Skin and subcutaneous tissue disorders (Overall QD (N = 20)): 4 (20.0) n (%)
TEAE: Vomiting (Overall QD (N = 20)): 8 (40.0) n (%)
TEAE: Weight decreased (Overall QD (N = 20)): 4 (20.0) n (%)
Any treatment-emergent adverse event (TEAE) (Overall Study (N = 35)): 3 (8.6) n (%)
